From a melting point compilation (Tetko et al.)

Settings: a range is the spread between reports

Row | Structure (SMILES) | melting point [°C]
1 | CCC#N | -93 to -92
2 | COC(=O)CCl | -32.1 to -32
3 | Nc1ccc(/C=C/c2ccc([N+](=O)[O-])cc2)c([N+](=O)[O-])c1 | 198 to 202
4 | Oc1ccnc2ccccc12 | 201 to 203
5 | O=C1C=CC(=O)N1c1ccccc1 | 89 to 90.5
6 | C=CS(=O)(=O)c1ccccc1 | 68 to 69
7 | Clc1cc(Cl)c(Cl)c(Cl)c1 | 51.5 to 55
8 | O=Nc1ccccc1 | 65 to 68.5
9 | ClCC(Cl)Cl | -37 to -35
10 | O=S(=O)(Cl)c1ccc(Br)cc1 | 75 to 76
11 | Cc1ccc(Br)cc1 | 25 to 28.5
12 | Nc1cccc2cccc(N)c12 | 63 to 66.5
13 | CC(=O)c1ccc(Br)cc1 | 50.5 to 51
14 | CC(C)(C)C(O)C(Oc1ccc(Cl)cc1)n1cncn1 (stereo unspecified) | 134 to 138
15 | BrCCBr | 9.9 to 10
16 | N#Cc1cc(Cl)ccc1N | 96 to 97
17 | O=C(O)CBr | 47 to 50
18 | c1ccc(-c2cccc(-c3ccccn3)n2)nc1 | 90 to 91
19 | COc1ccc(C#N)cc1 | 59 to 61.5
20 | O=c1c(O)c(-c2ccccc2)oc2cc(O)cc(O)c12 | 214 to 215
21 | Cc1cccs1 | -63.4 to -63
22 | O=C(O)c1cc([N+](=O)[O-])cc([N+](=O)[O-])c1 | 205 to 206
23 | Clc1ccc(Cl)c(Cl)c1Cl | 47 to 47.5
24 | FC(F)(F)c1ccc(Cl)c(Cl)c1 | -12.5 to -12
25 | Oc1cc2ccccc2cc1O | 162 to 164
26 | C1CCCCCCCCCCCCCC1 | 61.3 to 62

Row | Structure (SMILES) | melting point [°C]
27 | c1cc2c3c(cccc3c1)CC2 | 93.4 to 95
28 | ClCc1ccccc1 | -45 to -43
29 | Cc1ccc(O)cc1Cl | 52 to 55.5
30 | c1ccc(-c2ncc[nH]2)cc1 | 148 to 149
31 | Nc1ccc(O)cc1 | 188 to 189
32 | CC(C)(C)c1ccccc1O | -7 to -6.8
33 | N#Cc1cccc(N)c1 | 52 to 54.3
34 | BrC1CCCCC1 | -57 to -56.5
35 | CC(=O)c1ccc(-c2ccccc2)cc1 | 120 to 122
36 | c1ccc2ncncc2c1 | 47 to 48
37 | CCC(Br)CBr (stereo unspecified) | -65.4 to -65
38 | O=C1CCCCCN1 | 69 to 70
39 | Cc1c(Br)cc(Br)cc1Br | 69 to 70
40 | ClCC1CC1 | -91 to -90.9
41 | O/N=C\c1ccccc1 | 35 to 36.5
42 | O=C(c1ccc(Cl)cc1)c1ccc(Cl)cc1 | 145 to 148
43 | O=C=Nc1ccc(Cc2ccc(N=C=O)cc2)cc1 | 37.2 to 38
44 | O=c1c2ccccc2oc2ccccc12 | 175 to 176
45 | O=S(=O)(Cl)c1ccc(I)cc1 | 82 to 85
46 | c1ccc(Cc2ccncc2)cc1 | 10 to 12.4
47 | Nc1cccc(Oc2ccccc2)c1 | 36 to 37
48 | CN[C@@H](C)[C@H](O)c1ccccc1 | 34 to 36
49 | NC(=O)c1ccc(N)nc1 | 246 to 247
50 | Cc1cc(Cl)nc(Cl)c1C#N | 110 to 113
51 | c1ccc(C2CCCCC2)cc1 | 5 to 7.3
52 | OCC(O)C1OC2OC(C(Cl)(Cl)Cl)OC2C1O (stereo unspecified) | 183 to 187

Row | Structure (SMILES) | melting point [°C]
53 | Nc1cccc(N)n1 | 120 to 122
54 | c1c[nH]nn1 | 23 to 24
55 | ClCc1ccc(Cl)cc1Cl | -3 to -2.6
56 | C1COCCO1 | 11.8 to 12
57 | c1ccc2c(c1)ccc1ccccc12 | 99 to 101
58 | N#CCCC#N | 54 to 56
59 | O=C(O)c1cc([N+](=O)[O-])cc([N+](=O)[O-])c1O | 170 to 171
60 | C1CN2CCN1CC2 | 158 to 159
61 | FC(F)(F)c1ccc(Cl)nc1 | 31 to 33
62 | C(=C\c1ccccc1)/c1ccccc1 | 123 to 126
63 | CCCCC(CC)COC(=O)CCCCC(=O)OCC(CC)CCCC (stereo unspecified) | -67.8 to -67
64 | CC(C)c1ccc(CO)cc1 | 27 to 28
65 | Cc1ccccc1-c1ccccc1 | -0.2 to 0
66 | Clc1ccc(Cl)s1 | -41 to -40.5
67 | Sc1nc2ccccc2[nH]1 | 298
68 | C=Cc1ccc(N)cc1 | 23.5 to 26
69 | CCBr | -119
70 | N#Cc1ccccc1[N+](=O)[O-] | 108 to 109
71 | O=S1(=O)CCCC1 | 27 to 27.6
72 | C=CC(=O)OC | -76.5 to -75
73 | [O-][S+](Cc1ccccc1)Cc1ccccc1 | 133 to 134
74 | N#CC(Br)(Br)C(N)=O | 124
75 | c1ccc(-c2nc3ccccc3s2)cc1 | 114 to 115
76 | ICI | 5 to 6.1
77 | Fc1ccc(Cl)cc1 | -26.8 to -22
78 | O=C(O)C(Cl)Br (stereo unspecified) | 27 to 31.5

The remaining lines, values ahead:

Row | melting point [°C] | Structure (SMILES)
79 | 88 to 89 | CC(=O)Oc1ccc(-c2ccccc2)cc1
80 | 57.5 to 59 | COc1ccccc1OC(=O)c1ccccc1
81 | 5.5 to 6 | CCCCCCCCCCCCCC
82 | 70 to 72 | O=C(c1ccccc1)c1ccncc1
83 | -18 to -17.5 | O=C(O)C(F)(F)C(F)(F)C(F)(F)F
84 | -25.4 to -25 | Cc1cccc(C)c1C
85 | 174 to 175 | O=C(O)C12CC3CC(CC(C3)C1)C2
86 | 237 to 238 | O=C(O)c1cccc(Cl)c1[N+](=O)[O-]
87 | 171 to 172 | O=C(O)C(=Cc1ccccc1)c1ccccc1
88 | 153 to 155 | O=Cc1ccc(O)c(O)c1
89 | 36 to 38 | OCc1ccc(Cl)c(Cl)c1
90 | 16.5 to 18 | O=C(Cl)c1ccc(Cl)cc1Cl
91 | 66 to 71 | CN1C(=O)CCC1=O
92 | 21 to 22 | CCCc1ccc(O)cc1
93 | -16.3 to -16 | CCCCCCCCCCI
94 | 162 to 163 | O=C(O)c1c(Cl)cc(Cl)cc1Cl
95 | 59 to 63 | Cc1cc(O)c(C(C)C)cc1Cl
96 | -5 to -4.8 | CCc1ccc(N)cc1
97 | 262 to 263 | CC1CC2C3CCC4=CC(=O)C=CC4(C)C3(F)C(O)CC2(C)C1(O)C(=O)CO (stereo unspecified)
98 | 12 to 13.5 | CCCCCCCCCCCCCCCC(=O)OC(C)C
99 | -144 | CCC1(C)CCCC1
100 | 144 to 146 | CC(=O)c1ccc(O)cc1O
101 | 270 to 273 | CS(=O)(=O)c1ccc(C(=O)O)cc1
102 | 43 to 44 | CCc1cc(C(C)(C)C)c(O)c(C(C)(C)C)c1

Row | melting point [°C] | Structure (SMILES)
103 | -50.4 to -50 | CCCCCC(C)(C)O
104 | 169 to 171 | O=C(O)[C@H](O)[C@@H](O)C(=O)O
105 | 137 to 138 | O=C(c1ccccc1)c1ccc([N+](=O)[O-])cc1
106 | -63 to -62.9 | CCc1ccc(C)cc1C
107 | -3 to 0.3 | CCCCCCCCCCCCI
108 | -30 to -29.5 | CCC(C)=NO
109 | 198 to 199 | O=C(O)c1ccc(C(=O)c2ccccc2)cc1
110 | 124 | CCOC(=O)c1cc2ccccc2[nH]1
111 | 174 to 175 | Cc1ccc(N(CC2=NCCN2)c2cccc(O)c2)cc1
112 | 127 to 129 | O=C(O)c1ccccc1C(=O)c1ccccc1
113 | 183 to 185 | Cc1cc(N)nc(C)n1
114 | -30 to -29.5 | CCOc1ccccc1
115 | 39 to 41.5 | NCCCCCCN
116 | 9.8 to 10 | Cc1cc(C)cc(N)c1
117 | -77 to -76.9 | CCc1cccnc1
118 | 28 to 29 | CN1CCC(O)CC1
119 | 158 to 159 | O=C(O)c1c(F)cccc1F
120 | 42 to 42.5 | COC(=O)c1cccnc1
121 | 62.5 to 65.5 | Cc1cc(C)cc(O)c1
122 | 8.5 to 11.1 | NCCN
123 | -65.9 to -65 | CC(C)C=O
124 | 23 to 24 | CCCCCc1ccc(O)cc1
125 | -75 to -74.6 | CCCCCCCC(C)C
126 | 262 to 263 | O=C(O)C=Cc1ccc(Br)cc1

Row | melting point [°C] | Structure (SMILES)
127 | 55 to 57 | COc1ccc(O)cc1
128 | 110 to 112 | CCNC(=O)NCC
129 | -117 | CCCC1CCCC1
130 | 28 to 32 | COc1ccccc1O
131 | 101 | CC(C)(C)C(C)(C)C
132 | 105 to 107 | O=C(Oc1ccc2ccccc2c1)c1ccccc1
133 | 296 to 300 | O=C(O)c1ccccc1-c1c2cc(Br)c(=O)c(Br)c-2oc2c(Br)c(O)c(Br)cc12
134 | -8 to -7 | COc1cccc(C(C)=O)c1
135 | 57.5 to 59 | COc1ccc(CCCC(=O)O)cc1
136 | 32.5 to 34 | N#CCc1cccc2ccccc12
137 | 142 to 144 | C=Cc1ccc(C(=O)O)cc1
138 | 96 to 99 | O=C(C=Cc1ccccc1)c1ccc(Cl)cc1
139 | -109 to -105 | CCCCCC(C)C
140 | -45 to -43 | CCOC(=O)CC(C)=O
141 | 138 to 139 | O=C(O)c1ccsc1
142 | 142 | CC12CCC(=O)C=C1CCC1C2CCC2(C)C(C(=O)CO)CCC12 (stereo unspecified)
143 | 130 to 132 | O=C(O)CC(O)C(=O)O (stereo unspecified)
144 | 52 to 53 | CCCCCCCCC(=O)CCCCCCCC
145 | 93 to 94 | O=C(C[N+](=O)[O-])Nc1ccccc1
146 | 11 to 14.5 | CN(C=O)c1ccccc1
147 | 86 to 87 | COc1cc(C#N)ccc1O
148 | -13 to -12 | C=CCCCCCCCCCCCC
149 | -28.2 to -28 | OCC(F)F
150 | 25 to 27 | CCCC#CC(=O)O

Row | melting point [°C] | Structure (SMILES)
151 | 42 to 44.5 | CC(O)CNCC(C)O (stereo unspecified)
152 | 71 to 75 | Cc1cc(C)cc([N+](=O)[O-])c1
153 | 207 to 208 | O=C(O)c1ccc(Cl)c(Cl)c1
154 | 79 to 81.8 | CC(=O)c1ccc([N+](=O)[O-])cc1
155 | 39 to 39.5 | CCCCCCCCCCCCCC(C)=O
156 | 50.8 to 53 | O=c1cccccc1O
157 | 253 to 256 | COC1=CC(=O)C=C(OC)C1=O
158 | 19 to 19.5 | COC(=O)CCC(=O)OC
159 | 113 to 114 | CCC(C(=O)O)C(=O)O
160 | 81 to 82.5 | O=C(c1ccccc1)c1ccc(Br)cc1
161 | -126 | CCC(Br)CC
162 | 136 to 138 | O=C(c1ccco1)C(O)c1ccco1 (stereo unspecified)
163 | 218 to 220 | Cc1n[nH]c(=S)[nH]c1=O
164 | 64 to 64.7 | Cc1cc(Br)ccc1O
165 | -44 to -43.8 | Cc1ccc(C)c(C)c1
166 | -93.5 to -93 | CC(C)CCOC=O
167 | -132 | C#CCCCC
168 | 66 to 67.1 | C(CC1CCNCC1)CC1CCNCC1
169 | 29.5 to 32 | Cc1ccc(Cl)c(N)c1
170 | 79 to 80 | Cc1cc(C)c(C)cc1C
171 | 56 to 57 | NCCCCCCO
